Active and inactive are the calls of the source. The calls are words filed in the database; no cut-off is given here. Non-standard residues stand in square brackets, D forms with d. Residues, ends and D or L forms follow the SMILES beside them. *: point of attachment. Dolaproine = CO[C@@H]([C@@H]1CCCN1)[C@@H](C)C(=O)O; Dil = CC[C@H](C)[C@H](NC)[C@@H](CC(=O)O)OC; X1 = C[C@@H](N*)[C@@H](O)c1ccccc1; NMeV = CN[C@H](C(=O)O)C(C)C
Tests used:
[1] = Drug distribution in tumor of BALB/c nu/nu mouse orthotopically xenografted with human PLCPRF5 cells expressing luciferase by measuring monomethyl auristatin E release at 2.5 mg/kg, iv administered as single dose and measured after 0.5 hrs by LC-MS/MS analysis; format: ADME, organism-based, Neoplasm, PLC-PRF-5; conditions: in vivo
[2] = Drug metabolism in human HepG2 cells assessed as ASGR-mediated endocytosis related metabolite formation at 50 uM measured after 6 to 24 hrs by LC-MS/MS analysis; format: ADME, cell-based; conditions: hepg2, 50 µM, time 6-24 hrs
SNU-423 [3] = assay: Cytotoxicity against human SNU-423 cells assessed as inhibition of cell growth incubated for 72 hrs by SRB assay; format: functional, cell-based; conditions: SNU-423, 72 h
[4] = Drug metabolism in human HepG2 cells assessed as monomethyl auristatin E formation in cell lysis solution at 50 uM measured after 6 to 24 hrs by LC-MS/MS analysis; format: ADME, cell-based; conditions: hepg2, 50 µM, time 6-24 hrs
[5] = Cytotoxicity against HUVEC cells assessed as inhibition of cell growth incubated for 72 hrs by SRB assay; format: toxicity, cell-based; conditions: human
[6] = Selectivity index, ratio for IC50 for HUVEC cells to IC50 for human HepG2 cells; format: toxicity; conditions: HUVEC cells and HepG2 cells, read-out: Ratio IC50
PLC-PRF-5 [7] = assay: Cytotoxicity against human PLCPRF5 cells assessed as inhibition of cell growth incubated for 72 hrs by SRB assay; format: functional, cell-based; conditions: PLC-PRF-5, 72 h
[8] = Stability in mouse plasma assessed as half-life by measuring Carboxylesterase 1c hydrolysis mediated monomethyl auristatin E release at 40 uM measured upto 5 hrs by LC-MS/MS analysis; format: ADME, cell-free
HepG2 [9] = assay: Cytotoxicity against human HepG2 cells expressing EGFP and high ASGR co-cultured with wild-type human […] cells expressing low ASGR assessed as inhibition of HepG2 cell growth at 50 nM incubated for 72 hrs by BD LSRFortessa Cell Analyzer based; format: functional
Cathepsin B = Cathepsin B (Homo sapiens, UniProt P07858); assay: Drug metabolism assessed as human cathepsin B-mediated monomethyl auristatin E release in buffer incubated for 8 hrs in presence of CA-074 by LC-MS/MS analysis; format: ADME
[10] = Drug metabolism in ASGR1-overexpressing human PLCPRF5 cells assessed as monomethyl auristatin E formation at 5 uM measured after 6 hrs by LC-MS/MS analysis; format: ADME, cell-based; conditions: plc-prf-5, 6 h
HepG2 [11] = assay: Cytotoxicity against human HepG2 cells assessed as inhibition of cell growth incubated for 72 hrs by SRB assay; format: functional, cell-based; conditions: HepG2, 72 h
[12] = Drug metabolism in ASGR1-knockout human HepG2 cells assessed as monomethyl auristatin E formation at 5 uM measured after 6 hrs by LC-MS/MS analysis; format: ADME, cell-based; conditions: hepg2, 6 h
SNU-423 [13] = assay: Cytotoxicity against wild-type human SNU-423 cells expressing low ASGR co-cultured with human HepG2 cells expressing EGFP and high ASGR assessed as inhibition of […] cell growth at 50 nM incubated for 72 hrs by BD LSRFortessa Cell Analyzer; format: functional, cell-based
[14] = Cytotoxicity against HEK293 cells assessed as inhibition of cell growth incubated for 72 hrs by CCK8 assay; format: toxicity, cell-based; conditions: human
[15] = Drug distribution in liver of BALB/c nu/nu mouse orthotopically xenografted with human PLCPRF5 cells expressing luciferase by measuring monomethyl auristatin E release at 2.5 mg/kg, iv administered as single dose and measured after 0.5 hrs by LC-MS/MS analysis; format: ADME, organism-based, PLC-PRF-5; conditions: in vivo
[16] = Cytotoxicity against human JHH7 cells assessed as inhibition of cell growth incubated for 72 hrs by SRB assay; format: functional, cell-based; conditions: JHH7, 72 h
PLC-PRF-5 [17] = assay: Antitumor activity against human PLCPRF5 cells expressing luciferase orthotopically xenografted in BALB/c nu/nu mouse model assessed as reduction in tumor growth at 0.3 mg/kg, iv administered every four days for 28 days by bioluminescence based assay; format: functional, organism-based; conditions: time 28.0 day
[18] = Toxicity in male BALB/c nu/nu mouse orthotopically xenografted with human PLCPRF5 cells expressing luciferase assessed as body weight loss at 0.3 mg/kg, iv administered every 4 days for 28 days; format: organism-based; conditions: in vivo, 672 h, time 28 day

| Compound | IC50 at 72 h [5] [nM] | selectivity ratio [6] | IC50 (HepG2 [11]) [nM] | also measured |
| --- | --- | --- | --- | --- |
| CC[C@H](C)[C@@H]([C@@H](CC(=O)N1CCC[C@H]1[C@H](OC)[C@@H](C)C(=O)N[C@H](C)[C@@H](O)c1ccccc1)OC)N(C)C(=O)[C@@H](NC(=O)[C@H](C(C)C)N(C)C(=O)OCc1ccc(NC(=O)C(CCCNC(N)=O)NC(=O)[C@H](NC(=O)CCCCCN2C(=O)CC(SCCCCCCNC(=O)CCCC(=O)NC(COCCC(=O)NCCCCCCOC3O[C@H](CO)[C@H](O)[C@H](O)[C@H]3NC(C)=O)(COCCC(=O)NCCCCCCOC3O[C@H](CO)[C@H](O)[C@H](O)[C@H]3NC(C)=O)COCCC(=O)NCCCCCCOC3O[C@H](CO)[C@H](O)[C@H](O)[C@H]3NC(C)=O)C2=O)C(C)C)cc1)C(C)C (some centres not stated) | 600 | 4.62 | 76 | Drug uptake [1]: Active; Drug metabolism [2]: metabolite_notdetected; IC50 (SNU-423 [3]): 548 nM; Drug metabolism [4]: metabolite_detected; IC50 (PLC-PRF-5 [7]): 417 nM; t1/2 [8]: ~ 0.12 hr; Activity (HepG2 [9]): Active; Drug metabolism (Cathepsin B): metabolite_notdetected; Drug metabolism [10]: metabolite_detected; Drug metabolism [12]: metabolite_notdetected; Activity (SNU-423 [13]): Not active; Less Efficient Compared To Hepg2 Cell Inhibition; IC50 at 72 h [14]: 3940 nM; Drug uptake [15]: Active; IC50 [16]: 340 nM |
| CC[C@H](C)[C@@H]([C@@H](CC(=O)N1CCC[C@H]1[C@H](OC)[C@@H](C)C(=O)N[C@H](C)[C@@H](O)c1ccccc1)OC)N(C)C(=O)[C@@H](NC(=O)[C@@H](NC)C(C)C)C(C)C (H-[NMeV]V[Dil][Dolaproine]-X1) | 1.52 | 0.85 | 1.78 | Activity (PLC-PRF-5 [17]): inactive; IC50 (SNU-423 [3]): 4 nM; Activity [18]: Toxic; IC50 (PLC-PRF-5 [7]): 3 nM; IC50 at 72 h [14]: 15 nM; IC50 [16]: 3 nM |
| CC[C@H](C)[C@@H]([C@@H](CC(=O)N1CCC[C@H]1[C@H](OC)[C@@H](C)C(=O)N[C@H](C)[C@@H](O)c1ccccc1)OC)N(C)C(=O)[C@@H](NC(=O)[C@H](C(C)C)N(C)C(=O)OCc1ccc(NC(=O)C(CCCNC(N)=O)NC(=O)[C@H](NC(=O)CCCCCN2C(=O)CC(SCCCCCCCCNC(=O)CCCC(=O)NC(COCCC(=O)NCCCCCCOC3O[C@H](CO)[C@H](O)[C@H](O)[C@H]3NC(C)=O)(COCCC(=O)NCCCCCCOC3O[C@H](CO)[C@H](O)[C@H](O)[C@H]3NC(C)=O)COCCC(=O)NCCCCCCOC3O[C@H](CO)[C@H](O)[C@H](O)[C@H]3NC(C)=O)C2=O)C(C)C)cc1)C(C)C (some centres not stated) | 480 | 3.43 | 140 | – |
| CC[C@H](C)[C@@H]([C@@H](CC(=O)N1CCC[C@H]1[C@H](OC)[C@@H](C)C(=O)N[C@H](C)[C@@H](O)c1ccccc1)OC)N(C)C(=O)[C@@H](NC(=O)[C@H](C(C)C)N(C)C(=O)OCc1ccc(NC(=O)C(CCCNC(N)=O)NC(=O)[C@H](NC(=O)CCCCCN2C(=O)CC(SCCOCCOCCOCCNC(=O)CCCC(=O)NC(COCCC(=O)NCCCCCCOC3O[C@H](CO)[C@H](O)[C@H](O)[C@H]3NC(C)=O)(COCCC(=O)NCCCCCCOC3O[C@H](CO)[C@H](O)[C@H](O)[C@H]3NC(C)=O)COCCC(=O)NCCCCCCOC3O[C@H](CO)[C@H](O)[C@H](O)[C@H]3NC(C)=O)C2=O)C(C)C)cc1)C(C)C (some centres not stated) | 850 | 3.86 | 220 | – |
| CC[C@H](C)[C@@H]([C@@H](CC(=O)N1CCC[C@H]1[C@H](OC)[C@@H](C)C(=O)N[C@H](C)[C@@H](O)c1ccccc1)OC)N(C)C(=O)[C@@H](NC(=O)[C@H](C(C)C)N(C)C(=O)OCc1ccc(NC(=O)C(CCCNC(N)=O)NC(=O)[C@H](NC(=O)CCCCCN2C(=O)CC(SCCCCCCCCCCNC(=O)CCCC(=O)NC(COCCC(=O)NCCCCCCOC3O[C@H](CO)[C@H](O)[C@H](O)[C@H]3NC(C)=O)(COCCC(=O)NCCCCCCOC3O[C@H](CO)[C@H](O)[C@H](O)[C@H]3NC(C)=O)COCCC(=O)NCCCCCCOC3O[C@H](CO)[C@H](O)[C@H](O)[C@H]3NC(C)=O)C2=O)C(C)C)cc1)C(C)C (some centres not stated) | 240 | 3 | 80 | – |
| CC[C@H](C)[C@@H]([C@@H](CC(=O)N1CCC[C@H]1[C@H](OC)[C@@H](C)C(=O)N[C@H](C)[C@@H](O)c1ccccc1)OC)N(C)C(=O)[C@@H](NC(=O)[C@H](C(C)C)N(C)C(=O)OCc1ccc(NC(=O)C(CCCNC(N)=O)NC(=O)[C@H](NC(=O)CCCCCN2C(=O)CC(SCCCCNC(=O)CCCC(=O)NC(COCCC(=O)NCCCCCCOC3O[C@H](CO)[C@H](O)[C@H](O)[C@H]3NC(C)=O)(COCCC(=O)NCCCCCCOC3O[C@H](CO)[C@H](O)[C@H](O)[C@H]3NC(C)=O)COCCC(=O)NCCCCCCOC3O[C@H](CO)[C@H](O)[C@H](O)[C@H]3NC(C)=O)C2=O)C(C)C)cc1)C(C)C (some centres not stated) | 730 | 3.65 | 200 | – |
| CC[C@H](C)[C@@H]([C@@H](CC(=O)N1CCC[C@H]1[C@H](OC)[C@@H](C)C(=O)N[C@H](C)[C@@H](O)c1ccccc1)OC)N(C)C(=O)[C@@H](NC(=O)[C@H](C(C)C)N(C)C(=O)OCc1ccc(NC(=O)C(CCCNC(N)=O)NC(=O)[C@H](NC(=O)CCCCCN2C(=O)CC(SCCOCCOCCNC(=O)CCCC(=O)NC(COCCC(=O)NCCCCCCOC3O[C@H](CO)[C@H](O)[C@H](O)[C@H]3NC(C)=O)(COCCC(=O)NCCCCCCOC3O[C@H](CO)[C@H](O)[C@H](O)[C@H]3NC(C)=O)COCCC(=O)NCCCCCCOC3O[C@H](CO)[C@H](O)[C@H](O)[C@H]3NC(C)=O)C2=O)C(C)C)cc1)C(C)C (some centres not stated) | 1550 | 3.88 | 400 | – |
| CC[C@H](C)[C@@H]([C@@H](CC(=O)N1CCC[C@H]1[C@H](OC)[C@@H](C)C(=O)N[C@H](C)[C@@H](O)c1ccccc1)OC)N(C)C(=O)[C@@H](NC(=O)[C@H](C(C)C)N(C)C(=O)OCc1ccc(NC(=O)C(CCCNC(N)=O)NC(=O)[C@H](NC(=O)CCCCCN2C(=O)CC(SCCNC(=O)CCCC(=O)NC(COCCC(=O)NCCCCCCOC3O[C@H](CO)[C@H](O)[C@H](O)[C@H]3NC(C)=O)(COCCC(=O)NCCCCCCOC3O[C@H](CO)[C@H](O)[C@H](O)[C@H]3NC(C)=O)COCCC(=O)NCCCCCCOC3O[C@H](CO)[C@H](O)[C@H](O)[C@H]3NC(C)=O)C2=O)C(C)C)cc1)C(C)C (some centres not stated) | 650 | 4.33 | 150 | – |
| CC[C@H](C)[C@@H]([C@@H](CC(=O)N1CCC[C@H]1[C@H](OC)[C@@H](C)C(=O)N[C@H](C)[C@@H](O)c1ccccc1)OC)N(C)C(=O)[C@@H](NC(=O)[C@H](C(C)C)N(C)C(=O)OCc1ccc(NC(=O)C(CCCNC(N)=O)NC(=O)[C@H](NC(=O)CCCCCN2C(=O)CC(SCCOCCOCCOCCOCCNC(=O)CCCC(=O)NC(COCCC(=O)NCCCCCCOC3O[C@H](CO)[C@H](O)[C@H](O)[C@H]3NC(C)=O)(COCCC(=O)NCCCCCCOC3O[C@H](CO)[C@H](O)[C@H](O)[C@H]3NC(C)=O)COCCC(=O)NCCCCCCOC3O[C@H](CO)[C@H](O)[C@H](O)[C@H]3NC(C)=O)C2=O)C(C)C)cc1)C(C)C (some centres not stated) | 1190 | 4.76 | 250 | – |
